The values below come from patent US9073940B2, “Tricyclic pyrazol amine derivatives” (MERCK SERONO SA, priority 2009, dated 2015).

One experiment deals with 4 PI3K isoforms (Human recombinant GST-PI3K). The experiment can be described thus: PI3K scintillation proximity assay, best IC50 obtained with the four isoforms (alpha, beta, delta, gamma). It counts as biochemical. The note with it: best IC50 obtained with the four isoforms of PI3K; read-out: Best potency measured on the 4 PI3K isoforms. (In general: Scintillation proximity formats need no separation of bound from free tracer.)
Regarding `O=C(c1nn(CCCO)c2c1CS(=O)(=O)c1ccccc1-2)N1CCOCC1` [Example 54, 3-[3-(morpholin-4-ylcarbonyl)-5,5-dioxidothiochromeno[4,3-c]pyrazol-1(4H)-yl]propan-1-ol], the IC50 was determined as 2250 nM. On the same count and under the same terms, to `O=C(c1nn(CCc2ccccn2)c2c1CS(=O)(=O)c1ccccc1-2)N1CCOCC1` [Example 55, 3-(morpholin-4-ylcarbonyl)-1-(2-pyridin-2-ylethyl)-1,4-dihydrothiochromeno[4,3-c]pyrazole 5,5-dioxide] belongs 1920 nM; to `O=C(c1nn(-c2ccccc2)c2c1C(Cc1ccccc1)S(=O)(=O)c1ccccc1-2)N1CCOCC1` (stereo not drawn) [Example 57, 4-benzyl-3-(morpholin-4-ylcarbonyl)-1-phenyl-1,4-dihydrothiochromeno[4,3-c]pyrazole 5,5-dioxide], 2480 nM.

`O=C(c1nn(-c2ccccc2)c2c1C(CC1CC1)S(=O)(=O)c1ccccc1-2)N1CCOCC1` (stereo not drawn) [Example 58, 4-(cyclopropylmethyl)-3-(morpholin-4-ylcarbonyl)-1-phenyl-1,4-dihydrothiochromeno[4,3-c]pyrazole 5,5-dioxide]: the IC50 amounted to 3900 nM. Take `CCC1c2c(C(=O)N3CCOCC3)nn(-c3ccccc3)c2-c2ccccc2S1(=O)=O` (stereo not drawn) [Example 59, 4-ethyl-3-(morpholin-4-ylcarbonyl)-1-phenyl-1,4-dihydrothiochromeno[4,3-c]pyrazole 5,5-dioxide]: the IC50 was 2470 nM. For the compound `O=C(c1cccc(-n2nc(C(=O)N3CCOCC3)c3c2-c2ccccc2S(=O)(=O)C3)c1)N1CCOCC1` [Example 61, 3-(Morpholin-4-ylcarbonyl)-1-[3-(morpholin-4-ylcarbonyl)phenyl]-1,4-dihydrothiochromeno[4,3-c]pyrazole 5,5-dioxide], the IC50 came to 73 nM. As for `NC(=O)c1cccc(-n2nc(C(=O)N3CCOCC3)c3c2-c2ccccc2S(=O)(=O)C3)c1` [Example 62, 3-[3-(Morpholin-4-ylcarbonyl)-5,5-dioxidothiochromeno[4,3-c]pyrazol-1(4H)-yl]benzamide], the IC50 stood at 957 nM. With `Cn1nc(C(=O)N2CCOCC2)c2c1-c1cc(Br)ccc1S(=O)(=O)C2` [Example 63], the IC50 worked out at 1040 nM.

On to `O=C(c1nn(-c2ccccc2)c2c1CS(=O)(=O)c1ccc(Br)cc1-2)N1CCOCC1` [Example 64], for which the IC50 worked out at 1300 nM. Take `N#Cc1cccc(-n2nc(C(=O)N3CCOCC3)c3c2-c2ccccc2S(=O)(=O)C3)c1` [Example 68]: the IC50 came out at 376 nM. Still for that read-out and setting: to `CN(C)CCCn1nc(C(=O)N2CCOCC2)c2c1-c1ccccc1S(=O)(=O)C2` [Example 69, N,N-Dimethyl-3-[3-(morpholin-4-ylcarbonyl)-5,5-dioxidothiochromeno[4,3-c]pyrazol-1(4H)-yl]propan-1-amine] belongs 3110 nM; to `CN1CCCC(Cn2nc(C(=O)N3CCOCC3)c3c2-c2ccccc2S(=O)(=O)C3)C1` (stereo not drawn) [Example 70, 1-[(1-Methylpiperidin-3-yl)methyl]-3-(morpholin-4-ylcarbonyl)-1,4-dihydrothiochromeno[4,3-c]pyrazole 5,5-dioxide], 6050 nM.

Take `CN1CCCC1CCn1nc(C(=O)N2CCOCC2)c2c1-c1ccccc1S(=O)(=O)C2` (stereo not drawn) [Example 71, 1-[2-(1-Methylpyrrolidin-2-yl)ethyl]-3-(morpholin-4-ylcarbonyl)-1,4-dihydrothiochromeno[4,3-c]pyrazole 5,5-dioxide]: the IC50 was found to be 1230 nM. The same measure, in the same setting: in the case of `O=C(c1nn(CCN2CCOCC2)c2c1CS(=O)(=O)c1ccccc1-2)N1CCOCC1` [Example 72, 3-(Morpholin-4-ylcarbonyl)-1-(2-morpholin-4-ylethyl)-1,4-dihydrothiochromeno[4,3-c]pyrazole 5,5-dioxide] it was 795 nM; in that of `O=C(c1nn(C2CCNCC2)c2c1CS(=O)(=O)c1ccccc1-2)N1CCOCC1` [Example 74], 1520 nM.

Turning to `O=C(c1nn(C2CCCNC2)c2c1CS(=O)(=O)c1ccccc1-2)N1CCOCC1` (stereo not drawn) [Example 75], the IC50 amounted to 3010 nM. Still for that read-out and setting: in the case of `CN1CCCC(n2nc(C(=O)N3CCOCC3)c3c2-c2ccccc2S(=O)(=O)C3)C1` (stereo not drawn) [Example 77, 1-(1-Methylpiperidin-3-yl)-3-(morpholin-4-ylcarbonyl)-1,4-dihydrothiochromeno[4,3-c]pyrazole 5,5-dioxide] it was 772 nM; in that of `O=C(c1nn(C2CCCCCC2)c2c1CS(=O)(=O)c1ccccc1-2)N1CCOCC1` [Example 78, 1-Cycloheptyl-3-(morpholin-4-ylcarbonyl)-1,4-dihydrothiochromeno[4,3-c]pyrazole 5,5-dioxide], 469 nM; in that of `O=C(c1nn(C2CCCNCC2)c2c1CS(=O)(=O)c1ccccc1-2)N1CCOCC1` (stereo not drawn) [Example 82], 1900 nM. Consider `O=C(c1nn(C2CCNC2)c2c1CS(=O)(=O)c1ccccc1-2)N1CCOCC1` (stereo not drawn) [Example 84], for which the IC50 stood at 4640 nM.

For the compound `O=C(c1nn(-c2cccnc2)c2c1CS(=O)(=O)c1ccccc1-2)N1CCOCC1` [Example 88, 3-(Morpholin-4-ylcarbonyl)-1-pyridin-3-yl-1,4-dihydrothiochromeno[4,3-c]pyrazole 5,5-dioxide], the IC50 is 1130 nM. Consider `COCCNc1ccc2c(c1)-c1c(c(C(=O)N3CCOCC3)nn1C1CCCCC1)CS2(=O)=O` [Example 89], for which the IC50 worked out at 1390 nM. Same read-out and setting: to `CC(C)(C)C1CCC(n2nc(C(=O)N3CCOCC3)c3c2-c2ccccc2S(=O)(=O)C3)CC1` (stereo not drawn) [Example 94, 1-(4-tert-Butylcyclohexyl)-3-(morpholin-4-ylcarbonyl)-1,4-dihydrothiochromeno[4,3-c]pyrazole 5,5-dioxide] belongs 4120 nM; to `O=C(c1nn(C2CCC(O)CC2)c2c1CS(=O)(=O)c1ccccc1-2)N1CCOCC1` (stereo not drawn) [Example 98, 4-[3-(Morpholin-4-ylcarbonyl)-5,5-dioxidothiochromeno[4,3-c]pyrazol-1(4H)-yl]cyclohexanol], 512 nM.

For the compound `O=C(c1nn(C2CCCOC2)c2c1CS(=O)(=O)c1ccccc1-2)N1CCOCC1` (stereo not drawn) [Example 99], the IC50 was 326 nM. Regarding `CC(=O)Nc1ccc2c(c1)-c1c(c(C(=O)N3CCOCC3)nn1-c1ccccc1)CS2(=O)=O` [Example 100, N-[3-(Morpholin-4-ylcarbonyl)-5,5-dioxido-1-phenyl-1,4-dihydrothiochromeno[4,3-c]pyrazol-8-yl]acetamide], the IC50 is 876 nM. Same read-out and setting: in the case of `COCCN1CCC(n2nc(C(=O)N3CCOCC3)c3c2-c2ccccc2S(=O)(=O)C3)CC1` [Example 101, 1-[1-(2-Methoxyethyl)piperidin-4-yl]-3-(morpholin-4-ylcarbonyl)-1,4-dihydrothiochromeno[4,3-c]pyrazole 5,5-dioxide] it was 1920 nM; in that of `Cn1nc(C(=O)N2CCOCC2)c2c1-c1ccccc1S(=O)(=O)C2Cc1ccccc1` (stereo not drawn) [Example 111, 4-Benzyl-1-methyl-3-(morpholin-4-ylcarbonyl)-1,4-dihydrothiochromeno[4,3-c]pyrazole 5,5-dioxide], 5270 nM; in that of `COCCCC1c2c(C(=O)N3CCOCC3)nn(-c3ccccc3)c2-c2ccccc2S1(=O)=O` (stereo not drawn) [Example 112, 4-(3-Methoxypropyl)-3-(morpholin-4-ylcarbonyl)-1-phenyl-1,4-dihydrothiochromeno[4,3-c]pyrazole 5,5-dioxide], 5070 nM. Still for that read-out and setting: in the case of `COc1ccc2c(c1)-c1c(c(C(=O)N3CCOCC3)nn1-c1ccccc1)CS2(=O)=O` [Example 113, 8-Methoxy-3-(morpholin-4-ylcarbonyl)-1-phenyl-1,4-dihydrothiochromeno[4,3-c]pyrazole 5,5-dioxide] it was 3350 nM. On to `CN1CCN(C(=O)c2ccc3c(c2)-c2c(c(C(=O)N4CCOCC4)nn2-c2ccccc2)CS3(=O)=O)CC1` [Example 114, 8-[(4-Methylpiperazin-1-yl)carbonyl]-3-(morpholin-4-ylcarbonyl)-1-phenyl-1,4-dihydrothiochromeno[4,3-c]pyrazole 5,5-dioxide], for which the IC50 was 4280 nM. Same read-out and setting: in the case of `CN(C)C(=O)c1ccc2c(c1)-c1c(c(C(=O)N3CCOCC3)nn1-c1ccccc1)CS2(=O)=O` [Example 115, N,N-Dimethyl-3-(morpholin-4-ylcarbonyl)-1-phenyl-1,4-dihydrothiochromeno[4,3-c]pyrazole-8-carboxamide 5,5-dioxide] it was 3730 nM; in that of `O=C(c1ccc2c(c1)-c1c(c(C(=O)N3CCOCC3)nn1-c1ccccc1)CS2(=O)=O)N1CCOCC1` [Example 116, 3,8-Bis(morpholin-4-ylcarbonyl)-1-phenyl-1,4-dihydrothiochromeno[4,3-c]pyrazole 5,5-dioxide], 3030 nM.

Consider `O=C(c1ccc2c(c1)-c1c(c(C(=O)N3CCOCC3)nn1-c1ccccc1)CS2(=O)=O)N1CCCCC1` [Example 117, 3-(Morpholin-4-ylcarbonyl)-1-phenyl-8-(piperidin-1-ylcarbonyl)-1,4-dihydrothiochromeno[4,3-c]pyrazole 5,5-dioxide], for which the IC50 stood at 3410 nM. Regarding `CS(=O)(=O)Nc1ccc2c(c1)-c1c(c(C(=O)N3CCOCC3)nn1-c1ccccc1)CS2(=O)=O` [Example 118, N-[3-(Morpholin-4-ylcarbonyl)-5,5-dioxido-1-phenyl-1,4-dihydrothiochromeno[4,3-c]pyrazol-8-yl]methanesulfonamide], the IC50 amounted to 1310 nM. Still for that read-out and setting: to `CC(C)(C)OC(=O)N1CCC(n2nc(C(=O)N3CCOCC3)c3c2-c2ccccc2S(=O)(=O)C3)CC1` [Example 119, tert-Butyl 4-[3-(morpholin-4-ylcarbonyl)-5,5-dioxidothiochromeno[4,3-c]pyrazol-1(4H)-yl]piperidine-1-carboxylate] belongs 808 nM. Same read-out and setting: to `CC(C)(C)OC(=O)N1CCCC(n2nc(C(=O)N3CCOCC3)c3c2-c2ccccc2S(=O)(=O)C3)C1` (stereo not drawn) [Example 120] belongs 1540 nM.

Staying with this experiment, now noted: inhibition at 20 μM.
As to `CC1(C)c2c(C(=O)N3CCOCC3)nn(-c3ccccc3)c2-c2ccccc2S1(=O)=O` [Example 60, 4,4-dimethyl-3-(morpholin-4-ylcarbonyl)-1-phenyl-1,4-dihydrothiochromeno[4,3-c]pyrazole 5,5-dioxide], the “Best potency measured on the 4 PI3K isoforms, % inh @20 μM” value is 52% in @20 μM.

On to `COc1cc(OC)cc(-n2nc(C(=O)N3CCOCC3)c3c2-c2ccccc2S(=O)(=O)C3)c1` [Example 67], for which the “Best potency measured on the 4 PI3K isoforms, % inh @20 μM” value turned out to be 54% inh @20 μM.
